# Assays:
# S. suis 65 = assay: Antibiotic susceptibility of S. suis 65 (broth microdilution MIC); assay type: cell-based; details: Streptococcus suis; S. suis 65, THB, 96-well plates, 24 h at 37°C, growth recorded visually; three independent experiments
# Description: The susceptibility of S. suis 65 to antibiotics (amoxicillin, ceftiofur, and penicillin G) was determined as follows. Briefly, a 24-h bacterial culture in THB was diluted in fresh broth medium to obtain an optical density at 660 nm (OD660) of 0.2. Equal volumes (100 μl) of bacteria and serial dilutions of antibiotics in THB were mixed in the wells of 96-well plates. Wells with no bacteria or no antibiotics were used as controls. Following a 24-h incubation at 37°C, bacterial growth was recorded visually. Minimal inhibitory concentration (MIC) values (μg/ml) were expressed as the lowest concentration at which no growth occurred. The MIC values were determined in three independent experiments.
# S. suis MNCM06 = assay: Resistance to antibiotics (MIC-based class); assay type: cell-based, Streptococcus suis; details: strain MNCM06; resistant if MIC ≥ 400 μg/ml
# Source text: (§1) Table 1 Strains of S. suis used in this study, their characteristics and susceptibility to S. suis 65. | column: Resistance to antibiotics ^1 / Erythromycin; Resistance to antibiotics ^1 / Tetracycline
# S. suis LPH4 = assay: Resistance to antibiotics (MIC-based class); assay type: cell-based, Streptococcus suis; details: strain LPH4; resistant if MIC ≥ 400 μg/ml
# Source text: as §1
# S. suis 1054471 = assay: Resistance to antibiotics (MIC-based class); assay type: cell-based, Streptococcus suis; details: strain 1054471; resistant if MIC ≥ 400 μg/ml
# Source text: as §1
# S. suis MNCM01 = assay: Resistance to antibiotics (MIC-based class); assay type: cell-based, Streptococcus suis; details: strain MNCM01; resistant if MIC ≥ 400 μg/ml
# Source text: as §1
# S. suis P1/7 = assay: Resistance to antibiotics (MIC-based class); assay type: cell-based, Streptococcus suis; details: strain P1/7; resistant if MIC ≥ 400 μg/ml
# Source text: as §1
# S. suis 1088563 = assay: Resistance to antibiotics (MIC-based class); assay type: cell-based, Streptococcus suis; details: strain 1088563; resistant if MIC ≥ 400 μg/ml
# Source text: as §1
# S. suis 31533 = assay: Resistance to antibiotics (MIC-based class); assay type: cell-based, Streptococcus suis; details: strain 31533; resistant if MIC ≥ 400 μg/ml
# Source text: as §1
SMILES,MIC (S. suis 65) [ng/mL],Resistance to antibiotics (S. suis MNCM06),Resistance to antibiotics (S. suis LPH4),Resistance to antibiotics (S. suis 1054471),Resistance to antibiotics (S. suis MNCM01),Resistance to antibiotics (S. suis P1/7),Resistance to antibiotics (S. suis 1088563),Resistance to antibiotics (S. suis 31533)
CC1(C)S[C@@H]2[C@H](NC(=O)[C@H](N)c3ccc(O)cc3)C(=O)N2[C@H]1C(=O)O [amoxicillin],4.9,–,–,–,–,–,–,–
CC[C@H]1OC(=O)[C@H](C)[C@@H](O[C@H]2C[C@@](C)(OC)[C@@H](O)[C@H](C)O2)[C@H](C)[C@@H](O[C@@H]2O[C@H](C)C[C@H](N(C)C)[C@H]2O)[C@](C)(O)C[C@@H](C)C(=O)[C@H](C)[C@@H](O)[C@]1(C)O [Erythromycin],–,Resistant (A strain was considered resistant if the MIC was ≥ 400 μg/ml),Resistant (A strain was considered resistant if the MIC was ≥ 400 μg/ml),Sensitive (A strain was considered resistant if the MIC was ≥ 400 μg/ml),Resistant (A strain was considered resistant if the MIC was ≥ 400 μg/ml),Sensitive (A strain was considered resistant if the MIC was ≥ 400 μg/ml),Resistant (A strain was considered resistant if the MIC was ≥ 400 μg/ml),Sensitive (A strain was considered resistant if the MIC was ≥ 400 μg/ml)
CN(C)[C@@H]1C(O)=C(C(N)=O)C(=O)[C@@]2(O)C(O)=C3C(=O)c4c(O)cccc4[C@@](C)(O)[C@H]3C[C@@H]12 [Tetracycline],–,Resistant (A strain was considered resistant if the MIC was ≥ 400 μg/ml),Resistant (A strain was considered resistant if the MIC was ≥ 400 μg/ml),Resistant (A strain was considered resistant if the MIC was ≥ 400 μg/ml),Resistant (A strain was considered resistant if the MIC was ≥ 400 μg/ml),Sensitive (A strain was considered resistant if the MIC was ≥ 400 μg/ml),Resistant (A strain was considered resistant if the MIC was ≥ 400 μg/ml),Sensitive (A strain was considered resistant if the MIC was ≥ 400 μg/ml)

# Now from value to molecule, other results behind:
MIC (S. suis 65) [ng/mL],SMILES,Resistance to antibiotics (S. suis MNCM06),Resistance to antibiotics (S. suis LPH4),Resistance to antibiotics (S. suis 1054471),Resistance to antibiotics (S. suis MNCM01),Resistance to antibiotics (S. suis P1/7),Resistance to antibiotics (S. suis 1088563),Resistance to antibiotics (S. suis 31533)
9.8,CO/N=C(\C(=O)N[C@@H]1C(=O)N2C(C(=O)O)=C(CSC(=O)c3ccco3)CS[C@H]12)c1csc(N)n1 [ceftiofur],–,–,–,–,–,–,–
9.8,CC1(C)S[C@@H]2[C@H](NC(=O)Cc3ccccc3)C(=O)N2[C@H]1C(=O)O [penicillin G],–,–,–,–,–,–,–
